Measured values reported in patent publication US10131652B2, “Pyrimidinyloxy benzene derivatives as herbicides” (E. I. DU PONT DE NEMOURS AND COMPANY, priority 2014, dated 2018).

Tests used:
Format in all cases: in vivo
[1] = tested on: velvetleaf (Abutilon theophrasti); experiment: Test D pre-/postemergence plant response
Outline: (§1)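 Two application timings were run together: preemergence onto seeded loam–sand pots, and postemergence onto 1- to 4-leaf plants (2 to 18 cm) in peat/vermiculite medium with starter nutrients. Formulation was a non-phytotoxic solvent with surfactant. Ratings, 0 to 100, were made visually versus controls after 13 to 15 greenhouse days.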

[2] = tested on: lambsquarters (Chenopodium album); experiment: Test D pre-/postemergence plant response
Outline: as §1

soybean (Glycine max) = experiment: Test D pre-/postemergence plant response
Outline: as §1

[3] = tested on: morningglory (Ipomoea coccinea); experiment: Test D pre-/postemergence plant response
Outline: as §1

[4] = tested on: johnsongrass (Sorghum halepense); experiment: Test D pre-/postemergence plant response
Outline: as §1

[5] = tested on: waterhemp (common waterhemp, Amaranthus rudis); experiment: Test D pre-/postemergence plant response
Outline: as §1

[6] = tested on: winter wheat (Triticum aestivum); experiment: Test D pre-/postemergence plant response
Outline: as §1

[7] = tested on: barnyardgrass (Echinochloa crus-galli); experiment: Test C flooded paddy test plant response; conditions: Flood, 250 g ai/ha; scale of 0 to 100 where 0 is no effect and 100 is complete control; 13 to 15 days
Outline: (§2)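 Plants grown to 2-leaf stage, flooded 3 cm above soil; compounds applied directly into paddy water, depth kept throughout. Visual rating versus controls after 13 to 15 days in greenhouse, 0 (no effect) to 100 (complete control).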

[8] = tested on: ducksalad (Heteranthera limosa); experiment: Test C flooded paddy test plant response; conditions: Flood, 250 g ai/ha; scale of 0 to 100 where 0 is no effect and 100 is complete control; 13 to 15 days
Outline: as §2

rice (Oryza sativa) = experiment: Test C flooded paddy test plant response; conditions: Flood, 250 g ai/ha; scale of 0 to 100 where 0 is no effect and 100 is complete control; 13 to 15 days
Outline: as §2

[9] = tested on: small-flower umbrella sedge (Cyperus difformis); experiment: Test C flooded paddy test plant response; conditions: Flood, 250 g ai/ha; scale of 0 to 100 where 0 is no effect and 100 is complete control; 13 to 15 days
Outline: as §2

[10] = tested on: giant foxtail (Setaria faberii); experiment: Test B pre-/postemergence plant response
Outline: (§3)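 Steps: plant seeds in loam soil–sand mix; spray soil preemergence, and in parallel spray 2–10 cm one- to two-leaf plants postemergence; hold ~10 days in greenhouse; visually rate injury against untreated controls (0 = no effect, 100 = complete control).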

[11] = tested on: barnyardgrass (Echinochloa crus-galli); experiment: Test B pre-/postemergence plant response
Outline: as §3

corn (Zea mays) = experiment: Test B pre-/postemergence plant response; conditions: 0 to 100 scale, 0 no effect, 100 complete control
Outline: as §3

[12] = tested on: wheat (Triticum aestivum); experiment: Test B pre-/postemergence plant response; conditions: 0 to 100 scale, 0 no effect, 100 complete control
Outline: as §3

[13] = tested on: pigweed (Amaranthus retroflexus); experiment: Test B pre-/postemergence plant response
Outline: as §3

[14] = Postemergence, 16 g ai/ha, scale 0 to 100 (0 no effect, 100 complete control)
[15] = Postemergence, 31 g ai/ha, scale 0 to 100 (0 no effect, 100 complete control)
[16] = Postemergence, 62 g ai/ha, scale 0 to 100, 0 no effect, 100 complete control
[17] = Postemergence, 125 g ai/ha, scale 0 to 100, 0 no effect, 100 complete control
[18] = Preemergence, 16 g ai/ha, scale 0 to 100 (0 no effect, 100 complete control)
[19] = Preemergence, 31 g ai/ha, scale 0 to 100 (0 no effect, 100 complete control)
[20] = Preemergence, 62 g ai/ha, scale 0 to 100 (0 no effect, 100 complete control)
[21] = 31 g ai/ha, Postemergence, 0 to 100 scale, 0 no effect, 100 complete control
[22] = 31 g ai/ha, Preemergence, 0 to 100 scale where 0 is no effect and 100 is complete control
[23] = 125 g ai/ha, postemergence, 0 to 100 scale, 0 no effect, 100 complete control
[24] = Preemergence, 125 g ai/ha, 0 to 100 scale where 0 is no effect and 100 is complete control

Compound: FC(F)c1cc(-c2c(Cl)cccc2Oc2ncc(Cl)cn2)on1 [Compound 120]
- Velvetleaf plant response rating [1, 14]: 70
- Velvetleaf plant response rating [1, 15]: 85
- Plant response rating, Velvetleaf [1, 16]: 100
- Plant response rating, Velvetleaf [1, 17]: 100
- Plant response rating (scale 0 to 100), Velvetleaf ([1]; Preemergence, 125 g ai/ha): 100
- Plant response rating, Velvetleaf [1, 18]: 50
- Plant response rating, Velvetleaf [1, 19]: 75
- Plant response rating, Velvetleaf [1, 20]: 100
- Lambsquarters plant response rating [2, 14]: 100
- Lambsquarters plant response rating [2, 15]: 100
- Plant response rating, Lambsquarters [2, 16]: 100
- Plant response rating, Lambsquarters [2, 17]: 100
- Plant response rating (scale 0 to 100), Lambsquarters ([2]; Preemergence, 125 g ai/ha): 100
- Plant response rating, Lambsquarters [2, 18]: 70
- Plant response rating, Lambsquarters [2, 19]: 95
- Plant response rating, Lambsquarters [2, 20]: 90
- Soybean plant response rating (soybean (Glycine max); [14]): 90
- Soybean plant response rating (soybean (Glycine max); [15]): 70
- Plant response rating, Soybean (soybean (Glycine max); [16]): 70
- Plant response rating, Soybean (soybean (Glycine max); [17]): 95
- Plant response rating (scale 0 to 100), Soybean (soybean (Glycine max); Preemergence, 125 g ai/ha): 50
- Plant response rating, Soybean (soybean (Glycine max); [18]): 75
- Plant response rating, Soybean (soybean (Glycine max); [19]): 10
- Plant response rating, Soybean (soybean (Glycine max); [20]): 60
- Morningglory plant response rating [3, 14]: 85
- Morningglory plant response rating [3, 15]: 98
- Plant response rating, Morningglory [3, 16]: 80
- Plant response rating, Morningglory [3, 17]: 100
- Plant response rating (scale 0 to 100), Morningglory ([3]; Preemergence, 125 g ai/ha): 75
- Plant response rating, Morningglory [3, 18]: 0
- Plant response rating, Morningglory [3, 19]: 30
- Plant response rating, Morningglory [3, 20]: 60
- Johnsongrass plant response rating [4, 14]: 5
- Johnsongrass plant response rating [4, 15]: 30
- Plant response rating, Johnsongrass [4, 16]: 40
- Plant response rating, Johnsongrass [4, 17]: 85
- Plant response rating (scale 0 to 100), Johnsongrass ([4]; Preemergence, 125 g ai/ha): 98
- Plant response rating, Johnsongrass [4, 18]: 50
- Plant response rating, Johnsongrass [4, 19]: 55
- Plant response rating, Johnsongrass [4, 20]: 95
- Waterhemp plant response rating [5, 14]: 90
- Waterhemp plant response rating [5, 15]: 100
- Plant response rating, Waterhemp [5, 16]: 100
- Plant response rating, Waterhemp [5, 17]: 100
- Plant response rating (scale 0 to 100), Waterhemp ([5]; Preemergence, 125 g ai/ha): 100
- Plant response rating, Waterhemp [5, 18]: 100
- Plant response rating, Waterhemp [5, 19]: 100
- Plant response rating, Waterhemp [5, 20]: 100
- Wheat plant response rating [6, 14]: 0
- Wheat plant response rating [6, 15]: 0
- Plant response rating, Wheat [6, 16]: 0
- Plant response rating, Wheat [6, 17]: 0
- Plant response rating (scale 0 to 100), Wheat ([6]; Preemergence, 125 g ai/ha): 5
- Plant response rating, Wheat [6, 18]: 0
- Plant response rating, Wheat [6, 19]: 0
- Plant response rating, Wheat [6, 20]: 5
- Barnyardgrass plant response rating [7]: 90
- Ducksalad plant response rating [8]: 100
- Rice plant response rating (rice (Oryza sativa)): 90
- Sedge, Umbrella plant response rating [9]: 95
- Plant response rating, Foxtail, Giant [10, 21]: 40
- Plant response rating, Foxtail, Giant [10, 22]: 100
- Plant response rating, Foxtail, Giant [10, 23]: 90
- Plant response rating, Foxtail, Giant [10, 24]: 100
- Plant response rating, Barnyardgrass [11, 21]: 50
- Plant response rating, Barnyardgrass [11, 22]: 90
- Plant response rating, Barnyardgrass [11, 23]: 90
- Plant response rating, Barnyardgrass [11, 24]: 100
- Plant response rating, Corn (corn (Zea mays); 31 g ai/ha, Postemergence): 30
- Plant response rating, Corn (corn (Zea mays); 125 g ai/ha, postemergence): 40
- Plant response rating, Wheat ([12]; 31 g ai/ha, Postemergence): 0
- Plant response rating, Wheat ([12]; 125 g ai/ha, postemergence): 40
- Plant response rating, Pigweed [13, 21]: 100
- Plant response rating, Pigweed [13, 22]: 100
- Plant response rating, Pigweed [13, 23]: 100

Compound: FC(F)c1cc(-c2c(Cl)cccc2Oc2ncc(Br)cn2)on1 [Compound 121]
- Velvetleaf plant response rating [1, 15]: 80
- Plant response rating, Velvetleaf [1, 16]: 80
- Plant response rating, Velvetleaf [1, 17]: 85
- Lambsquarters plant response rating [2, 15]: 100
- Plant response rating, Lambsquarters [2, 16]: 100
- Plant response rating, Lambsquarters [2, 17]: 100
- Soybean plant response rating (soybean (Glycine max); [15]): 60
- Plant response rating, Soybean (soybean (Glycine max); [16]): 90
- Plant response rating, Soybean (soybean (Glycine max); [17]): 95
- Morningglory plant response rating [3, 15]: 75
- Plant response rating, Morningglory [3, 16]: 90
- Plant response rating, Morningglory [3, 17]: 98
- Johnsongrass plant response rating [4, 15]: 35
- Plant response rating, Johnsongrass [4, 16]: 60
- Plant response rating, Johnsongrass [4, 17]: 60
- Waterhemp plant response rating [5, 15]: 95
- Plant response rating, Waterhemp [5, 16]: 100
- Plant response rating, Waterhemp [5, 17]: 100
- Wheat plant response rating [6, 15]: 0
- Plant response rating, Wheat [6, 16]: 0
- Plant response rating, Wheat [6, 17]: 0
- Barnyardgrass plant response rating [7]: 60
- Ducksalad plant response rating [8]: 90
- Rice plant response rating (rice (Oryza sativa)): 45
- Sedge, Umbrella plant response rating [9]: 90
- Plant response rating, Foxtail, Giant [10, 21]: 70
- Plant response rating, Foxtail, Giant [10, 22]: 100
- Plant response rating, Foxtail, Giant [10, 23]: 90
- Plant response rating, Foxtail, Giant [10, 24]: 100
- Plant response rating, Barnyardgrass [11, 21]: 50
- Plant response rating, Barnyardgrass [11, 22]: 70
- Plant response rating, Barnyardgrass [11, 23]: 90
- Plant response rating, Barnyardgrass [11, 24]: 90
- Plant response rating, Corn (corn (Zea mays); 31 g ai/ha, Postemergence): 20
- Plant response rating, Corn (corn (Zea mays); 125 g ai/ha, postemergence): 40
- Plant response rating, Wheat ([12]; 31 g ai/ha, Postemergence): 0
- Plant response rating, Wheat ([12]; 125 g ai/ha, postemergence): 30
- Plant response rating, Pigweed [13, 21]: 100
- Plant response rating, Pigweed [13, 22]: 100
- Plant response rating, Pigweed [13, 23]: 100
